Laboratory results: paper PMC11409218, “Metal(triphenylphosphine)-atovaquone Complexes: Synthesis, Antimalarial Activity, and Suppression of Heme Detoxification” (Inorganic Chemistry, 2024)
Read-outs that look alike come from different tables or passages of the source.

Tests used:
[1] = Interaction with ferriprotoporphyrin IX, spectroscopic titration of Soret band at 402 nm; format: binding; settings: for log K (association constant of drug binding to hemin): pH 7.4, 40% aqueous DMSO, 1:1 complexation model, mean and SEM of three experiments; for hypochromic effect on the Soret band of hemin: until saturation point, 402 nm
Protocol: The association constants (Log K) of the compounds with hemin were determined at pH 7.4 using a 1:1 complexation model with the equation proposed by Egan et al.[52] for the nonlinear least-squares fitting (Figure 2, Table 2).
Following a procedure described in the literature,[52] the association constant (Log K) of the drugs with ferriprotoporphyrin IX was determined in 40% aqueous DMSO. A stock solution of hemin chloride was prepared by adding 3.5 mg hemin to 10 mL DMSO and adjusted to pH 7.5. A working solution of hemin in 40% DMSO was further prepared by mixing 140 μL hemin stock solution, 5 mL distilled water, 3.86 mL DMSO, and 1 mL 0.2 M Tris (tris(hydroxymethyl)aminomethane) buffer. Aliquots of compounds were added to this working hemin solution. Blank solutions containing only hemin or compounds were prepared to subtract the absorbance of the compounds. […] Binding affinity was determined using the equation A = (A0 + A∞K[C])/(1 + K[C]) for a 1:1 complexation model using nonlinear least-squares fitting, where A0 is the absorbance of Fe(III)PPIX, A∞ is the absorbance of the compound–hemin adduct at saturation, and K is the association constant. Three independent experiments were performed.

[2] = test system: P. falciparum W2 (CQ-resistant strain); experiment: Antiplasmodial activity, asexual blood stages, HRP2 ELISA-based assay, W2 strain; format: cell-based, Plasmodium falciparum; settings: CQ-resistant W2 strain, 72 h drug incubation, mean of five to seven experiments, read-out: P. falciparum IC50 (±SEM), W2
Protocol: The potency of the metal complexes to inhibit parasite growth was also examined in comparison with ATV.
The two strains were synchronized twice with sorbitol before use,[69] and clonality was verified every 15 days through PCR genotyping of the polymorphic genetic markers msp1 and msp2 and microsatellite loci.[70],[71] Compounds were resuspended in DMSO and then diluted in RPMI-DMSO (99v/1v) to obtain final concentrations ranging from 0.25 to 20000 nM.
After freezing and then thawing, the hemolyzed cultures were homogenized by vortexing the plates. The drug susceptibility assay was performed using the HRP2 ELISA-based assay of the Malaria Ag Celisa kit (ref KM2159, Cellabs PTY LDT, Brookvale, Australia), as described previously.[72]

[3] = Buffer–n-octanol distribution coefficient (shaking flask method)
Protocol: The distribution coefficient (Log D), a proxy parameter to estimate drug lipophilicity, was assessed for ATV and its metal complexes 1–3.
Buffer–n-octanol distribution coefficients were determined using the shaking flask method.[73] A UV–vis calibration curve was prepared in the 10–100 μM range in n-octanol. […] The concentration of complex in n-octanol was measured spectrophotometrically in order to determine values of D = [compound] (in n-octanol)/[compounds] (in buffer).[66],[67]

Solubility in solvents = format: physicochemical; settings: for solubility in common organic solvents: dichloromethane, chloroform, dimethyl sulfoxide, acetone
Excerpt: (see Experimental Section). The chemical and physical characterization of ATV and the metal–ATV complexes are presented in the Supporting Information (Figures S1–S16). […] We attributed this band to a metal-to-ligand charge transfer (MLCT metal →π ATV naphthoquinone)[37] (Figures S3, S26–S28).

J774 cells = experiment: Cytotoxicity in mammalian cells (CellTiter-Glo), J774; format: cell-based; settings: J774 murine macrophage line; 72 h drug incubation; mean of three experiments; read-out: mammalian cells CC50 (±SEM), J774
Protocol: (§1) Cell lines J774 and HepG2 were incubated with the drug for 72 h, the same time frame as employed to determine antimalarial activity. Cytotoxicity was evaluated in parallel with ATV as a representative parental drug, while doxorubicin was used as a standard cytotoxic drug. These experiments were also used to estimate the in vitro selectivity index (Table 2).
(§2) Doxorubicin chloridrate (Eurofarma, São Paulo, Brazil) was used as a positive control, while untreated cells were employed as negative controls. Bioluminescence readings were performed using a Filtermax F5Multi-Mode instrument (Molecular Devices, Sunnyvale, CA) using the CellTiter-Glo kit (Promega Corporation, Madison, USA). Three independent experiments were performed and CC50 values were calculated.

[4] = test system: 3D7 strain of P. falciparum; experiment: Antiplasmodial activity after preincubation of compounds in cell culture medium (Figure 3A); format: cell-based, Plasmodium falciparum; settings: compound preincubated 0 or 72 h in culture medium
Protocol: To understand the reason for the difference in antiplasmodial potency between monodentate complex 2 and bidentate complexes 1 and 3, we incubated all three metal complexes in cell culture media for different times before assessing their antiplasmodial activity (Figure 3A). The percentage of parasite growth inhibition in samples of cell culture medium containing complex 2 was reduced after 72 h incubation in comparison to freshly prepared samples (0 h). […] We interpret the loss in antiplasmodial activity for complex 2 as potentially resulting from ligand exchange reactions occurring in the culture medium before drug internalization into parasite cells. This denotes a higher lability for the monodentate complex 2 than for the bidentate complexes 1 and 3.
Figure 3 (A) Antiplasmodial activity of the compounds against the 3D7 strain of P. falciparum. (B) Cytotoxicity against the J774 cell line. In both cases, the compounds were diluted in cell culture and incubated for 0 or 72 h before use in the assays. […] In panels A and C, parasite viability was measured by HRP2 ELISA-based assay, and IC50 values were calculated. In panel B, cell viability was measured by CellTiter-Glo, and IC50 values were calculated. In panels A and B, the values are the mean and standard deviation of two independent experiments, using each concentration of compounds in duplicate. In panel C, the values are the mean and standard deviation of one experiment, using each concentration of compounds in quadruplicate. *p < 0.05; indicating significant difference by Student’s t test.

HepG2 cells = experiment: Cytotoxicity in mammalian cells (CellTiter-Glo), HepG2; format: cell-based; settings: HepG2 human hepatocellular carcinoma line; 72 h drug incubation; mean of three experiments; read-out: mammalian cells CC50 (±SEM), HepG2
Protocol: as §1, §2

| Compound | log K (association constant of drug binding to hemin) [1] | hypochromic effect on the Soret band of hemin [1] [%] | IC50 ([2]; Plasmodium falciparum) [µM] | logD at 18 h ([3]; pH 5) | logD at 18 h ([3]; pH 7) | solubility in common organic solvents (Solubility in solvents) | solubility in methanol, ethanol, and acetonitrile (Solubility in solvents) | CC50 (J774 cells) [µM] | parasite growth inhibition after 72 h incubation in cell culture medium versus freshly prepared samples (0 h) [4] | IC50 [2] [µM] | CC50 (HepG2 cells) [µM] | log D pH 5 ([3]; pH 5) | log D pH 7 ([3]; pH 7) |
| --- | --- | --- | --- | --- | --- | --- | --- | --- | --- | --- | --- | --- | --- |
| O=C1C(O)=C([C@H]2CC[C@H](c3ccc(Cl)cc3)CC2)C(=O)c2ccccc21 [ATV, atovaquone] | 3.64 ± 0.10 | 42 | 0.0021 ± 0.0009 | -1.17 | -1.15 |  |  |  |  |  |  |  |  |
| O=C1C([O][Cu]([PH](c2ccccc2)(c2ccccc2)c2ccccc2)[PH](c2ccccc2)(c2ccccc2)c2ccccc2)=C([C@H]2CC[C@H](c3ccc(Cl)cc3)CC2)C(=O)c2ccccc21 [Complex 3, [Cu(ATV)(PPh3)2]] | 3.97 ± 0.01 | 38 |  |  |  | had enough solubility | partially soluble | 36.1 ± 3.9 | remained unchanged | 0.0263 ± 0.0069 | 44.3 ± 7.7 | –5.18 | 1.06 |
| [Ag(ATV)(PPh3)2] [Complex 1] | 4.33 ± 0.05 | 37 |  |  |  | had enough solubility | partially soluble | 9.5 ± 2.2 | remained unchanged | 0.0265 ± 0.0078 | 14.6 ± 0.9 | –2.12 | 0.08 |
| [Au(ATV)(PPh3)]·2H2O [Complex 2] | 4.46 ± 0.01 | 51 |  |  |  | had enough solubility | partially soluble | 10.8 ± 3.4 | reduced | 0.0052 ± 0.0022 | 8.9 ± 2.7 | –1.87 | –1.71 |
